Biological target: T1, AR (Homo sapiens, UniProt P10275, T878A)
T1 sequence (P10275 1-920 T878A): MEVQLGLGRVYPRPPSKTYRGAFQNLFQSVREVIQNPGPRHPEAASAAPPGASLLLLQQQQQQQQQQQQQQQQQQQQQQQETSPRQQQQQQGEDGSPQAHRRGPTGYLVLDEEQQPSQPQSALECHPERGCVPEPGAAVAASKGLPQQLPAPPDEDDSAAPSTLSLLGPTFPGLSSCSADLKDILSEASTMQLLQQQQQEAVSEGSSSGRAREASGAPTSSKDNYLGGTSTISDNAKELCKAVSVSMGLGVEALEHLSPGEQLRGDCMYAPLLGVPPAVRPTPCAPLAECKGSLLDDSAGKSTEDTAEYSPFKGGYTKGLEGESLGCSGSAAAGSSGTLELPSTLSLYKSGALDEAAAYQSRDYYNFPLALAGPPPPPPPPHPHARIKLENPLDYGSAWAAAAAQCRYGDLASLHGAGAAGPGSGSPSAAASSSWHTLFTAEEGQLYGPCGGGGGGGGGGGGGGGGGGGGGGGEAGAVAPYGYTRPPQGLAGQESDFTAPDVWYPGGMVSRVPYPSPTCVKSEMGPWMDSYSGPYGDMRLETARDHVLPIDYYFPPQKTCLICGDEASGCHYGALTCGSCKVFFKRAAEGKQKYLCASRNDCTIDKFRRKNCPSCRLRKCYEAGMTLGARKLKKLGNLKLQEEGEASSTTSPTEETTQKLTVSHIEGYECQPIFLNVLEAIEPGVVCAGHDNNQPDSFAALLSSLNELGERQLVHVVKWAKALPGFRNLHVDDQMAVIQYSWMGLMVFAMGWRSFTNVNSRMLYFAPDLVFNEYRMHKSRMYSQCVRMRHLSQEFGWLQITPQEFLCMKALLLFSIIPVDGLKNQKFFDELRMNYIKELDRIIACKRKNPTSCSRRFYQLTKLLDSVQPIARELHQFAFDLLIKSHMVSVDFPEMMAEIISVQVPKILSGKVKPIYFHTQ
Assay: Degradation effect on AR protein activity in prostate cancer cell line Lncap by ELISA method
Format: cell-based
Design: Degradation Effect of Compounds on AR Protein Activity in Prostate Cancer Cell Line Lncap by ELISA Method; endogenous in cells; host or cells: LNCaP
Conditions: 24 hours, Total Androgen Receptor Sandwich ELISA, read-out: IC50 (the drug concentration at 50% inhibition) of AR protein
Description: Activity Assay Example 6: Determination of the Degradation Effect of Compounds on AR Protein Activity in Prostate Cancer Cell Line Lncap by ELISA Method
• LNCaP: 1.5*10^LNCaP (human prostate cancer) was purchased from the Chinese Academy of Sciences Cell Bank and cultured in RPMI-1640 medium containing 10% fetal bovine serum. Lncap cells were cultured at 37° C. and 5% CO2 in a humidified incubator. When the coverage reached about 80%, the cells were passaged at a ratio of 1:3. • ELISA kit: Total Androgen Receptor Sandwich ELISA Kit (Brand CST, Cat #12850). 2. Test Method 2.1 Cell Plating
After the cells were centrifuged, they were diluted to 1.5×10^4 cells/100 ul with fresh medium and plated into a 96-well plate with 100 ul per well.
Test compound preparation: The compounds were weighed and diluted with DMSO to stock solution with a concentration of 10 mM for later use. According to the experimental requirements, the drug was diluted from 2 uM, 3 fold dilution for 10 point series, and finally 2 μl of the drug was added to each well, and 2 μl of DMSO was added to the control group.
2.3 After 24 hours, the medium was removed, and the cells were washed once with ice-cold 1×PBS. Then the PBS was removed, and 0.5 ml ice-cold 1× Cell Lysis Buffer containing 1 mM PMSF was added to each well plate and incubated on ice for 20 minutes. […]

Cc1ncsc1-c1ccc(CNC(=O)[C@@H]2C[C@@H](O)CN2C(=O)[C@@H](NC(=O)COCCCCOc2ccc(-c3ccc(N4C(=S)N(c5ccc(C#N)c(C(F)(F)F)c5F)C(=O)C4(C)C)cn3)cc2)C(C)(C)C)cc1 [Compound A46]
DC50: 49 nM

— patent publication US12606552B2, “Bifunctional compound, preparation method therefor, and use thereof” (SUZHOU KINTOR PHARMACEUTICALS, INC., priority 2020, dated 2026)
